# Data as given in the supplement of paper PMC10307832.
# Compound: CO[C@@H]1[C@H](N(C)C(=O)c2ccccc2)C[C@H]2O[C@]1(C)n1c3ccccc3c3c4c(c5c6ccccc6n2c5c31)C(=O)NC4 [Midostaurin] + Nc1ncn([C@H]2C[C@H](O)[C@@H](CO)O2)c(=O)n1 [Decitabine] (partner 2 µM)
# Assay: relative viability (nuclei count vs DMSO), 5 days (fraction); higher = more cells survive
# Details: first compound 0.01 µM
# In short: (§1)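 Lung cancer cell lines were pin-tool dosed in 1536-well plates on the day after seeding, with either a lone drug or a fixed anchor-drug dose plus five library-drug doses (not always all listed) in √10 steps. Nuclei were counted on 4× images after 5 days. Relative viability is the ratio of treated-well to vehicle-well nuclei counts, with each value a median of duplicate plates.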
row,Cell Line,relative viability
1,NCI-H1755,0.778
2,HCC-15,0.657
3,PC-14,0.184
4,EKVX,0.312
5,LC-2-ad,0.672
6,NCI-H1975,0.368
7,RERF-LC-KJ,0.748
8,NCI-H650,0.339
9,PC-3 [JPC-3],0.703

# Same assay, conditions: first compound 0.03162 µM
row,Cell Line,relative viability
1,NCI-H1755,0.684
2,HCC-15,0.669
3,PC-14,0.204
4,EKVX,0.312
5,LC-2-ad,0.751
6,NCI-H1975,0.446
7,RERF-LC-KJ,0.75
8,NCI-H650,0.311
9,PC-3 [JPC-3],0.815

# Same assay, conditions: first compound 0.1 µM
row,Cell Line,relative viability
1,NCI-H1755,0.715
2,HCC-15,0.614
3,PC-14,0.227
4,EKVX,0.353
5,LC-2-ad,0.699
6,NCI-H1975,0.366
7,RERF-LC-KJ,0.724
8,NCI-H650,0.321
9,PC-3 [JPC-3],0.839

# Same assay, conditions: first compound 0.3162 µM
row,Cell Line,relative viability
1,NCI-H1755,0.739
2,HCC-15,0.585
3,PC-14,0.114
4,EKVX,0.349
5,LC-2-ad,0.763
6,NCI-H1975,0.363
7,RERF-LC-KJ,0.658
8,NCI-H650,0.334
9,PC-3 [JPC-3],0.94

# Compound: COc1cc(-c2nn([C@H]3CC[C@H](N4CCN(C(C)=O)CC4)CC3)c3ncnc(N)c23)ccc1NC(=O)c1cc2ccccc2n1C + NC(=O)Nc1cc(-c2cccc(F)c2)sc1C(=O)N[C@H]1CCCNC1 [AZD7762] (partner 0.2 µM)
# Assay: as above
# Details: first compound 0.0128 µM
# In short: as §1
row,Cell Line,relative viability
1,NCI-H1755,0.501
2,HCC-15,1.46
3,PC-14,0.42
4,EKVX,0.79
5,LC-2-ad,0.86
6,NCI-H1975,0.761
7,RERF-LC-KJ,0.911
8,NCI-H650,1.13
9,PC-3 [JPC-3],0.654

# Same assay, conditions: first compound 0.04048 µM
row,Cell Line,relative viability
1,NCI-H1755,0.344
2,HCC-15,1.24
3,PC-14,0.417
4,EKVX,0.691
5,LC-2-ad,0.846
6,NCI-H1975,0.731
7,RERF-LC-KJ,0.949
8,NCI-H650,1.02
9,PC-3 [JPC-3],0.877

# Same assay, conditions: first compound 0.128 µM
row,Cell Line,relative viability
1,NCI-H1755,0.371
2,HCC-15,1.21
3,PC-14,0.365
4,EKVX,0.685
5,LC-2-ad,0.789
6,NCI-H1975,0.632
7,RERF-LC-KJ,0.981
8,NCI-H650,0.975
9,PC-3 [JPC-3],0.834

# Same assay, conditions: first compound 1.28 µM
row,Cell Line,relative viability
1,NCI-H1755,0.417
2,HCC-15,1.28
3,PC-14,0.355
4,EKVX,0.385
5,LC-2-ad,0.646
6,NCI-H1975,0.429
7,RERF-LC-KJ,0.749
8,NCI-H650,0.935
9,PC-3 [JPC-3],0.76

# Compound: CO[C@@H]1[C@H](N(C)C(=O)c2ccccc2)C[C@H]2O[C@]1(C)n1c3ccccc3c3c4c(c5c6ccccc6n2c5c31)C(=O)NC4 [Midostaurin] + CC(C)C[C@H](NC(=O)[C@H](Cc1ccccc1)NC(=O)c1cnccn1)B(O)O [Bortezomib] (partner 0.002 µM)
# Assay: as above
# Details: first compound 0.01 µM
# In short: as §1
row,Cell Line,relative viability
1,NCI-H1755,0.914
2,HCC-15,1.04
3,PC-14,0.839
4,EKVX,1.01
5,LC-2-ad,1.03
6,NCI-H1975,0.325
7,RERF-LC-KJ,1.16
8,NCI-H650,0.635
9,PC-3 [JPC-3],0.891

# Same assay, conditions: first compound 0.03162 µM
row,Cell Line,relative viability
1,NCI-H1755,0.912
2,HCC-15,0.946
3,PC-14,0.713
4,EKVX,0.995
5,LC-2-ad,0.979
6,NCI-H1975,0.513
7,RERF-LC-KJ,1.18
8,NCI-H650,0.783
9,PC-3 [JPC-3],0.734
